The Ki is the dissociation constant of the complex between target and ligand, obtained from inhibition or displacement.

The values that follow come from BindingDB's records for patent US11220494 (Pfizer Inc., 2022).

In this test the target is Cyclin-dependent kinase 6/G1/S-specific cyclin-D3 (Homo sapiens, UniProt Q00534+P30281). Briefly: Mobility Shift Assay. The procedure: The purpose of the CDK6/Cyclin D3 assay is to evaluate the inhibition (% inhibition, Kiapp and Ki values) in the presence of small molecule inhibitors by using a fluorescence based microfluidic mobility shift assay. […] The mobility shift assay electrophoretically separates the fluorescently labeled peptides (substrate and phosphorylated product) following the kinase reaction. Both substrate and product are measured and the ratio of these values is used to generate % conversion of substrate to product by the LabChip EZ Reader. […] The reaction was stopped after 95 minutes by the addition of 50 μL of 30 mM EDTA. Ki determinations were made from a plot of the fractional velocity as a function of inhibitor concentration fit to the Morrison equation with the enzyme concentration as a variable.
Cyclin-dependent kinase 6/G1/S-specific cyclin-D3, sequence (Q00534 whole entry): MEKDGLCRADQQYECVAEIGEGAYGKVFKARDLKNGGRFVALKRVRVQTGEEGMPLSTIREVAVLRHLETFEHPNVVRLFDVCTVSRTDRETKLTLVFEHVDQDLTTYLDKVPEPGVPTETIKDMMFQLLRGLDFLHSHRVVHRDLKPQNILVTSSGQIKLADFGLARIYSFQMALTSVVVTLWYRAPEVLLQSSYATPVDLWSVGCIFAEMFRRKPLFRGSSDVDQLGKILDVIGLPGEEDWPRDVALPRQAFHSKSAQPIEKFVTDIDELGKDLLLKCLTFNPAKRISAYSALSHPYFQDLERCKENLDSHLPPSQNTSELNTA
Cyclin-dependent kinase 6/G1/S-specific cyclin-D3, sequence (P30281 whole entry): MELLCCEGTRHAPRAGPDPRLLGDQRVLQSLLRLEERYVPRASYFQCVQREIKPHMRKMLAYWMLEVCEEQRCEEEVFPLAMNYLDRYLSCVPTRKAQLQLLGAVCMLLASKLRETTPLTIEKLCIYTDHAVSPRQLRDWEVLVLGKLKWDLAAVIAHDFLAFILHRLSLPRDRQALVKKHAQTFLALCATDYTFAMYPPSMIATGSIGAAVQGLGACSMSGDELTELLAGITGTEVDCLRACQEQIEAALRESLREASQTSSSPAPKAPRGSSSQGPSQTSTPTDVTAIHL

For the molecule `CC(C)n1c([C@H](C)O)nc2c(F)cc(-c3cc(N[C@@H]4CCN(S(C)(=O)=O)C[C@H]4O)ncc3Cl)cc21` [US11220494, Example E01], the Ki amounted to 1.4 nM.
